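The compound was tested at five concentrations on cells cultured in 96-well plates, with a 48-hour exposure period. TGI denotes the concentration required for complete inhibition of growth.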
Assays:
Test in all cases: NCI-60 cell line screen, 48 h
RXF 393 renal = system: RXF 393 renal
SNB-19 CNS = system: SNB-19 CNS
PC-3 prostate = system: PC-3 prostate
SK-MEL-28 melanoma = system: SK-MEL-28 melanoma
MDA-MB-435 = system: MDA-MB-435
HOP-92 NSCLC = system: HOP-92 NSCLC
OVCAR-3 ovarian = system: OVCAR-3 ovarian
A549 NSCLC = system: A549 NSCLC
OVCAR-4 ovarian = system: OVCAR-4 ovarian
CCRF-CEM leukemia = system: CCRF-CEM leukemia
NCI-H460 lung = system: NCI-H460 lung
MALME-3M melanoma = system: MALME-3M melanoma
K-562 leukemia = system: K-562 leukemia
SF-539 CNS = system: SF-539 CNS
SK-MEL-2 melanoma = system: SK-MEL-2 melanoma
OVCAR-5 ovarian = system: OVCAR-5 ovarian
786-0 renal = system: 786-0 renal
NCI-H23 lung = system: NCI-H23 lung
MDA-MB-231 breast = system: MDA-MB-231 breast
HCT-116 colon = system: HCT-116 colon
TK-10 renal = system: TK-10 renal
SNB-75 CNS = system: SNB-75 CNS
EKVX NSCLC = system: EKVX NSCLC
RPMI-8226 leukemia = system: RPMI-8226 leukemia
UACC-257 melanoma = system: UACC-257 melanoma
SK-MEL-5 melanoma = system: SK-MEL-5 melanoma
OVCAR-8 ovarian = system: OVCAR-8 ovarian
SR leukemia = system: SR leukemia
UACC-62 melanoma = system: UACC-62 melanoma
LOX IMVI melanoma = system: LOX IMVI melanoma
HOP-62 NSCLC = system: HOP-62 NSCLC
COLO 205 colon = system: COLO 205 colon
MDA-N = system: MDA-N
SN12C renal = system: SN12C renal
HS 578T breast = system: HS 578T breast
DU-145 prostate = system: DU-145 prostate
KM12 colon = system: KM12 colon
SF-295 CNS = system: SF-295 CNS
HT29 colon = system: HT29 colon
NCI/ADR-RES ovarian = system: NCI/ADR-RES ovarian
T-47D breast = system: T-47D breast
NCI-H226 lung = system: NCI-H226 lung
U251 CNS = system: U251 CNS
SF-268 CNS = system: SF-268 CNS
SW-620 colon = system: SW-620 colon
SK-OV-3 ovarian = system: SK-OV-3 ovarian
HCT-15 colon = system: HCT-15 colon
CAKI-1 renal = system: CAKI-1 renal
MOLT-4 leukemia = system: MOLT-4 leukemia
HCC-2998 colon = system: HCC-2998 colon
M14 melanoma = system: M14 melanoma
NCI-H522 lung = system: NCI-H522 lung
ACHN renal = system: ACHN renal
MCF7 breast = system: MCF7 breast
IGROV1 ovarian = system: IGROV1 ovarian

## CC12OC(=O)[C@@]3(O)CCC4C(C[C@H]5O[C@]56CC=CC(=O)[C@]46C)C45OC[C@H]6C(=O)O[C@@H]1C[C@@]6(C)[C@H](C4=O)C23O5 (stereo not given in full)
RXF 393 renal
  TGI: 2.43 µM
SNB-19 CNS
  TGI: 11.8 µM
PC-3 prostate
  TGI: 12.9 µM
SK-MEL-28 melanoma
  TGI: 2.06 µM
MDA-MB-435
  TGI: 5.2 µM
HOP-92 NSCLC
  TGI: 5.67 µM
OVCAR-3 ovarian
  TGI: 2.77 µM
A549 NSCLC
  TGI: 13.7 µM
OVCAR-4 ovarian
  TGI: 8.27 µM
CCRF-CEM leukemia
  TGI: 1.45 µM
NCI-H460 lung
  TGI: 8.69 µM
MALME-3M melanoma
  TGI: 5.72 µM
K-562 leukemia
  TGI: > 100 µM
SF-539 CNS
  TGI: 0.923 µM
SK-MEL-2 melanoma
  TGI: 9.38 µM
OVCAR-5 ovarian
  TGI: 10.7 µM
786-0 renal
  TGI: 2.25 µM
NCI-H23 lung
  TGI: 2.18 µM
MDA-MB-231 breast
  TGI: 2.58 µM
HCT-116 colon
  TGI: 4.97 µM
TK-10 renal
  TGI: 3.97 µM
SNB-75 CNS
  TGI: 20.7 µM
EKVX NSCLC
  TGI: 16.6 µM
RPMI-8226 leukemia
  TGI: 2.47 µM
UACC-257 melanoma
  TGI: 4.98 µM
SK-MEL-5 melanoma
  TGI: 2.86 µM
OVCAR-8 ovarian
  TGI: 12.6 µM
SR leukemia
  TGI: 2.46 µM
UACC-62 melanoma
  TGI: 3.46 µM
LOX IMVI melanoma
  TGI: 6.92 µM
HOP-62 NSCLC
  TGI: 10.4 µM
COLO 205 colon
  TGI: 1.93 µM
MDA-N
  TGI: 26.1 µM
SN12C renal
  TGI: 5.39 µM
HS 578T breast
  TGI: 68.9 µM
DU-145 prostate
  TGI: 7.77 µM
KM12 colon
  TGI: 3.97 µM
SF-295 CNS
  TGI: 16.2 µM
HT29 colon
  TGI: 8.99 µM
NCI/ADR-RES ovarian
  TGI: > 100 µM
T-47D breast
  TGI: 5.27 µM
NCI-H226 lung
  TGI: 6.98 µM
U251 CNS
  TGI: 5.77 µM
SF-268 CNS
  TGI: 1.91 µM
SW-620 colon
  TGI: 4.87 µM
SK-OV-3 ovarian
  TGI: 18.6 µM
HCT-15 colon
  TGI: 4.43 µM
CAKI-1 renal
  TGI: 7.53 µM
MOLT-4 leukemia
  TGI: 21.4 µM
HCC-2998 colon
  TGI: 10.5 µM
M14 melanoma
  TGI: 4.32 µM
NCI-H522 lung
  TGI: 1.77 µM
ACHN renal
  TGI: 8.45 µM
MCF7 breast
  TGI: 3.3 µM
IGROV1 ovarian
  TGI: 2.58 µM
